Measurements from the OligoGym collection.
Bases are written 5' to 3'; sugars and linkages follow in the same order, as letters with counts (s phosphorothioate, o phosphodiester; PS: all linkages phosphorothioate). The collection does not say whether C is 5-methylated. l = locked nucleic acid (LNA); d = 2'-deoxy (DNA)

The sequences below were run against Tau (assay: rat primary cortical neurons, FLIPR, 25 uM ASO).
In the case of CATTTTCTGACTCTAAT (sugars l4 d9 l4, PS), the calcium oscillation score was 57.8 % of control.
CATTTTTGTCTCATTAT (sugars l4 d9 l4, PS) was tested, and the calcium oscillation score was 51 % of control.
In the case of “CATTTTTTATTCATAACTTT (sugars l4 d12 l4, PS)”, the calcium oscillation score was 59.4 % of control.
For “CCAAAACATTCTCACCAAAC (sugars l3 d15 l2, PS)”, the calcium oscillation score was 68.1 % of control.
For “CCAAACTTTTACTCTGA (sugars l4 d10 l3, PS)”, the calcium oscillation score was 44.5 % of control.
“CCAAATTCCTCATAATCCA (sugars l2 d15 l2, PS)” was tested, and the calcium oscillation score was 75 % of control.
With “CCAAATTCCTCATAATCCAA (sugars l2 d15 l3, PS)” the calcium oscillation score was 73.4 % of control.
For “CCAACTCAACATTACCCTT (sugars l2 d15 l2, PS)”, the calcium oscillation score was 66.3 % of control.
“CCAACTCTTTGAACACC (sugars l3 d12 l2, PS)” was tested, and the calcium oscillation score was 75.5 % of control.
“CCAACTTTCATCTACTTTTC (sugars l2 d16 l2, PS)” was tested, and the calcium oscillation score was 99.7 % of control.
For CCAAGAGGCACAAGTC (sugars l3 d10 l3, PS), the calcium oscillation score was 74.3 % of control.
For CCAATACTAGATCTAT (sugars l4 d8 l4, PS), the calcium oscillation score was 64.7 % of control.
“CCAATCAATTATATTATAT (sugars l4 d11 l4, PS)” was tested, and the calcium oscillation score was 60.8 % of control.
In the case of “CCAATCTTCGACTGGACTCT (sugars l3 d14 l3, PS)”, the calcium oscillation score was 22.6 % of control.
For CCAATTAACCGAACTG (sugars l3 d10 l3, PS), the calcium oscillation score was 55.2 % of control.
With “CCAATTAACCGAACTGCGAG (sugars l3 d14 l3, PS)” the calcium oscillation score was 41.4 % of control.
For “CCAATTATCTTTAAATTCTA (sugars l4 d13 l3, PS)”, the calcium oscillation score was 70.7 % of control.
For CCAATTGTCACATTAA (sugars l4 d8 l4, PS), the calcium oscillation score was 63.1 % of control.
For “CCACACTTGGAGGTCACCTT (sugars l3 d14 l3, PS)”, the calcium oscillation score was 4.52 % of control.
“CCACATTTGTCTTTAAC (sugars l3 d10 l4, PS)” was tested, and the calcium oscillation score was 42.9 % of control.
With “CCACCATACTTGACTTC (sugars l3 d12 l2, PS)” the calcium oscillation score was 91.6 % of control.
For “CCACCATACTTGACTTCT (sugars l2 d14 l2, PS)”, the calcium oscillation score was 76.8 % of control.
“CCACCCAAACTCCAAGTT (sugars l2 d14 l2, PS)” was tested, and the calcium oscillation score was 52 % of control.
For “CCACCCATCAATTTGGAAAG (sugars l3 d14 l3, PS)”, the calcium oscillation score was 58.1 % of control.
“CCACCCTAACACAATCA (sugars l2 d12 l3, PS)” was tested, and the calcium oscillation score was 94 % of control.
With “CCACCTCATTAAGATCA (sugars l3 d12 l2, PS)” the calcium oscillation score was 56 % of control.
With “CCACCTCCTAGAACACA (sugars l2 d13 l2, PS)” the calcium oscillation score was 50.9 % of control.
With CCACCTCCTGGTTTAT (sugars l3 d10 l3, PS) the calcium oscillation score was 104 % of control.
With “CCACCTCCTGGTTTATGATG (sugars l3 d14 l3, PS)” the calcium oscillation score was 19.4 % of control.
For “CCACTACAAGCTCCACAT (sugars l2 d14 l2, PS)”, the calcium oscillation score was 50 % of control.
For CCACTCCATGTCAATC (sugars l4 d10 l2, PS), the calcium oscillation score was 69.3 % of control.
In the case of “CCACTCCATGTCAATCA (sugars l4 d11 l2, PS)”, the calcium oscillation score was 63.5 % of control.
With “CCACTGGCGACTTGTACACG (sugars l3 d14 l3, PS)” the calcium oscillation score was 16.8 % of control.
For “CCACTTTACTTTGCAAC (sugars l4 d11 l2, PS)”, the calcium oscillation score was 55.8 % of control.
“CCAGACACCACTGGCGACTT (sugars l3 d14 l3, PS)” was tested, and the calcium oscillation score was 128 % of control.
“CCAGACCATCAATTTCC (sugars l2 d13 l2, PS)” was tested, and the calcium oscillation score was 83.3 % of control.
CCAGATTCCCCAACTC (sugars l2 d12 l2, PS) was tested, and the calcium oscillation score was 73.3 % of control.
With “CCAGATTCCCCAACTCA (sugars l2 d12 l3, PS)” the calcium oscillation score was 76.7 % of control.
With “CCAGATTCCCCAACTCAC (sugars l3 d13 l2, PS)” the calcium oscillation score was 89 % of control.
“CCAGCAGCTTCGTCTTCCAG (sugars l3 d14 l3, PS)” was tested, and the calcium oscillation score was 36.1 % of control.
CCAGCGTGATCTTC (sugars l3 d8 l3, PS) was tested, and the calcium oscillation score was 120 % of control.
CCAGCGTGATCTTCCA (sugars l3 d10 l3, PS) was tested, and the calcium oscillation score was 98 % of control.
For “CCAGCGTGATCTTCCATCAC (sugars l3 d14 l3, PS)”, the calcium oscillation score was 112 % of control.
“CCAGCGTGATCTTCCATCAC (sugars l4 d11 l5, PS)” was tested, and the calcium oscillation score was 124 % of control.
With “CCAGCGTGATCTTCCATCAC (sugars l5 d11 l4, PS)” the calcium oscillation score was 91.6 % of control.
“CCAGCGTGATCTTCCATCAC (sugars ldlllddddddddddlldll, PS)” was tested, and the calcium oscillation score was 124 % of control.
In the case of “CCAGCGTGATCTTCCATCAC (sugars lldllddddddddddlldll, PS)”, the calcium oscillation score was 121 % of control.
For “CCAGCTAGTGGTGCCACCTG (sugars l3 d14 l3, PS)”, the calcium oscillation score was 1.84 % of control.
In the case of CCAGGGACCCAATCTT (sugars l3 d10 l3, PS), the calcium oscillation score was 76 % of control.
“CCAGGGACCCAATCTTCGAC (sugars l3 d14 l3, PS)” was tested, and the calcium oscillation score was 9.04 % of control.
With “CCAGGGACGTGGGTGATATT (sugars l3 d14 l3, PS)” the calcium oscillation score was 0 % of control.
For “CCAGGGAGGCAGACACCTCG (sugars l3 d14 l3, PS)”, the calcium oscillation score was 10.2 % of control.
In the case of “CCAGTGCCTGGCACAACAGG (sugars l3 d14 l3, PS)”, the calcium oscillation score was 4.03 % of control.
With “CCAGTTACCATCATACA (sugars l2 d12 l3, PS)” the calcium oscillation score was 91.8 % of control.
In the case of CCATCAATTTCCCTGT (sugars l2 d10 l4, PS), the calcium oscillation score was 56.3 % of control.
“CCATCAATTTGGAAAGATGA (sugars l3 d14 l3, PS)” was tested, and the calcium oscillation score was 52.3 % of control.
CCATCACTTCGAACTC (sugars l3 d10 l3, PS) was tested, and the calcium oscillation score was ≥ 200 % of control.
For “CCATCAGTCTTATCTCC (sugars l1 d14 l2, PS)”, the calcium oscillation score was 52.9 % of control.
With “CCATCATACTCCAAGTT (sugars l3 d12 l2, PS)” the calcium oscillation score was 60.8 % of control.
With “CCATCCTAAGTCAACCA (sugars l2 d13 l2, PS)” the calcium oscillation score was 62.8 % of control.
For CCATCCTATCTTCTAG (sugars l3 d10 l3, PS), the calcium oscillation score was 44.3 % of control.
“CCATCTTAATTCATTTAATT (sugars l4 d13 l3, PS)” was tested, and the calcium oscillation score was 69.1 % of control.
With CCATGATCTTAGGCTG (sugars l3 d10 l3, PS) the calcium oscillation score was 17.6 % of control.
For CCATGTCGATGCTGC (sugars l3 d9 l3, PS), the calcium oscillation score was 7.14 % of control.
For CCATGTCGATGCTGCC (sugars l3 d10 l3, PS), the calcium oscillation score was 55.1 % of control.
With CCATTAATTTAGCCAA (sugars l3 d9 l4, PS) the calcium oscillation score was 87.2 % of control.
For “CCATTATCTCACTGCTT (sugars l3 d12 l2, PS)”, the calcium oscillation score was 29.3 % of control.
With “CCATTCAGATCTATCCA (sugars l3 d12 l2, PS)” the calcium oscillation score was 94.3 % of control.
For “CCATTCCCTCCAGAACCATC (sugars l3 d14 l3, PS)”, the calcium oscillation score was 36.3 % of control.
“CCATTTTCACTGTTCACA (sugars l2 d14 l2, PS)” was tested, and the calcium oscillation score was 86.3 % of control.
For CCATTTTCCATATAATT (sugars l4 d9 l4, PS), the calcium oscillation score was 76.5 % of control.
In the case of “CCATTTTCCATATAATTT (sugars l4 d10 l4, PS)”, the calcium oscillation score was 70.7 % of control.
With “CCATTTTCCATATAATTTT (sugars l3 d12 l4, PS)” the calcium oscillation score was 79.3 % of control.
For “CCATTTTCCATATAATTTTA (sugars l3 d14 l3, PS)”, the calcium oscillation score was 56.3 % of control.
With “CCATTTTTATCATCACCT (sugars l3 d13 l2, PS)” the calcium oscillation score was 63.8 % of control.
With CCCAAGAGGCACAAGT (sugars l3 d10 l3, PS) the calcium oscillation score was 89.5 % of control.
In the case of CCCAATCTTCGACTGG (sugars l3 d10 l3, PS), the calcium oscillation score was 21.7 % of control.
“CCCAATCTTCGACTGGACTC (sugars l3 d14 l3, PS)” was tested, and the calcium oscillation score was 31.6 % of control.
“CCCACAGCACTAAATTT (sugars l3 d11 l3, PS)” was tested, and the calcium oscillation score was 83.5 % of control.
With CCCACATAAACTCCTT (sugars l3 d10 l3, PS) the calcium oscillation score was 53.4 % of control.
For “CCCACATTATATCAGTA (sugars l2 d12 l3, PS)”, the calcium oscillation score was 80.7 % of control.
“CCCACATTTGCAAACCA (sugars l2 d13 l2, PS)” was tested, and the calcium oscillation score was 53.9 % of control.
“CCCACATTTGCAAACCAC (sugars l2 d14 l2, PS)” was tested, and the calcium oscillation score was 50.5 % of control.
CCCACCAAAGACTTCA (sugars l2 d11 l3, PS) was tested, and the calcium oscillation score was 58.3 % of control.
With “CCCACCCAAACTCCAAGT (sugars l2 d13 l3, PS)” the calcium oscillation score was 69.3 % of control.
“CCCACCCATCAATTTGGAAA (sugars l3 d14 l3, PS)” was tested, and the calcium oscillation score was 11.7 % of control.
“CCCACTTTTAATTAAATTTC (sugars l3 d14 l3, PS)” was tested, and the calcium oscillation score was 76.8 % of control.
In the case of CCCAGAATTCTAACTA (sugars l4 d10 l2, PS), the calcium oscillation score was 63.5 % of control.
In the case of “CCCAGAATTCTAACTAT (sugars l4 d11 l2, PS)”, the calcium oscillation score was 77 % of control.
In the case of “CCCAGACCATCAATTTC (sugars l2 d12 l3, PS)”, the calcium oscillation score was 82.2 % of control.
“CCCAGCACACAGGCAGCCAC (sugars l3 d14 l3, PS)” was tested, and the calcium oscillation score was 24.2 % of control.
With CCCAGCGTGATCTT (sugars l3 d8 l3, PS) the calcium oscillation score was 46 % of control.
For CCCAGCGTGATCTTCC (sugars l3 d10 l3, PS), the calcium oscillation score was 4.6 % of control.
In the case of “CCCAGCGTGATCTTCCATCA (sugars l3 d14 l3, PS)”, the calcium oscillation score was 104 % of control.
With “CCCAGCGTGATCTTCCATCA (sugars l4 d11 l5, PS)” the calcium oscillation score was 104 % of control.
For “CCCAGCGTGATCTTCCATCA (sugars l5 d11 l4, PS)”, the calcium oscillation score was 106 % of control.
“CCCAGCGTGATCTTCCATCA (sugars ldlllddddddddddlldll, PS)” was tested, and the calcium oscillation score was 124 % of control.
For “CCCAGCGTGATCTTCCATCA (sugars lldllddddddddddlldll, PS)”, the calcium oscillation score was 100 % of control.
“CCCATCAATTTGGAAAGATG (sugars l3 d14 l3, PS)” was tested, and the calcium oscillation score was 58.1 % of control.
For “CCCATCTTAATTCATTTAAT (sugars l2 d14 l4, PS)”, the calcium oscillation score was 90.1 % of control.
For “CCCATTCAGATCTATCC (sugars l2 d13 l2, PS)”, the calcium oscillation score was 102 % of control.
CCCATTTACAATTCAG (sugars l3 d10 l3, PS) was tested, and the calcium oscillation score was 52.6 % of control.
For “CCCCACCCAAACTCCAAG (sugars l1 d15 l2, PS)”, the calcium oscillation score was 46.2 % of control.
With “CCCCACTTTTAATTAAA (sugars l4 d10 l3, PS)” the calcium oscillation score was 99.7 % of control.
In the case of “CCCCACTTTTAATTAAAT (sugars l3 d11 l4, PS)”, the calcium oscillation score was 95.2 % of control.
“CCCCACTTTTAATTAAATTT (sugars l3 d15 l2, PS)” was tested, and the calcium oscillation score was 97 % of control.
With CCCCAGACCATCAATT (sugars l2 d12 l2, PS) the calcium oscillation score was 57.7 % of control.
For “CCCCAGACCATCAATTT (sugars l2 d13 l2, PS)”, the calcium oscillation score was 61.7 % of control.
